The values that follow come from patent publication US6737246B2, “Method for detecting protein inhibitors and ligands of medical value” (Aventis Pharma Deutschland, GmbH, priority 2000, dated 2004).

For this assay, the target named is T1, MMP-13 (Homo sapiens, UniProt P45452).
T1 construct: purchased Invitek GmbH, Berlin, Germany HM 13110010
Kind of assay: MMP-13 marker substrate conversion (fluorescence) in the presence of collagen II and test substance. It is filed as biochemical. Conditions: control without test substance 49%. The method, then:
MMP-13 was obtained as a commercial product (Cat. No. HM 13110010) from Invitek GmbH, Berlin, Germany, activated according to the manufacturer's instruction, and diluted to 10 μg/10 ml with TCB buffer. TCB buffer was prepared by dissolving 10 mM tris(hydroxymethyl)aminomethane (Sigma-Aldrich Chemie GmbH, Deisenhofen, Germany) in water and adjusting the pH to 7.5 with HCl. 100 mM CaCl2×2H2O (Merck KGaA, Darmstadt, Germany) and 0.05% of Brij 35 solution, 30% (w/v) (Sigma-Aldrich Chemie GmbH, Deisenhofen, Deutschland), are added to said solution.
A solution of 10 mmol/l (7-methoxycoumarin-4-yl )acetyl-Pro-Leu-Gly-Leu-(3-[2,4-dinitrophenyl]-L-2,3-diaminopropionyl)-Ala-Arg-[…] (SEQ ID NO: 1). (Bachem Biochemica GmbH, Heidelberg, Germany) in dimethyl sulfoxide (DMSO) (Riedel-de Haen AG, Seelze, Germany) was diluted 1:40 (v/v) with water.
10 mg of human […] (Biocon, Potsdam, Germany) were dissolved in 2400 μl of 10 mmol/l acetic acid (72 hours at 4° C.), and then 1300 μl of a sodium bicarbonate solution (250 mmol/l) CaCl2×2H2O (Merck KGaA, Darmstadt, Germany) were added dropwise.
Test substance (suspected inhibitor or ligand), typically dissolved in water at an appropriate concentration relative to the amount of enzyme used.
The components A) (25 μl), B) (5 μl), C) (10 μl) and D) (10 μl) were mixed in a total volume of 50 μl, and fluorescence was measured in a commercial spectrofluorimeter after 15 minutes (excitation at 330 nm, emission at 390 nm, Spectrafluor plus, Tecan Deutschland GmbH, Crailsheim, Germany).
Enzyme and inhibitor were preincubated at room temperature for 15 min. The reaction was started by adding 5 μl of marker substrate solution (component B at 25 μM).
The fluorescence in example 1 was set at 100%, and the measured values of the other examples are based on this value.

Where [1] appears, read: 200 μmol/l test substance, components A (MMP-13), B (marker substrate), C (collagen II) present.

In the case of `C[C@H]1c2cccc(O)c2C(=O)C2=C(O)[C@]3(O)C(=O)C(C(N)=O)=C(O)[C@@H](N(C)C)[C@@H]3[C@@H](O)[C@@H]21` [doxycycline], the “Measured value (fluorescence, example 1 set at 100%)” value under setting [1] came out at 0%.

For the compound `Fc1ccc(/C(=C\CCN2CCC(=C(c3ccccc3)c3ccccc3)CC2)c2ccccc2)cc1` [substance (I), 4-(diphenylmethylene)-1-[4-(p-fluorophenyl)-4-phenyl-3-butenyl]piperidine], the “Measured value (fluorescence, example 1 set at 100%)” value reads like this: under setting [1], 59%; (200 μmol/l test substance, components A (MMP-13), B (marker substrate), C (collagen II) present, listed as (I)) 59%. Turning to protamine sulfate, the “Measured value (fluorescence, example 1 set at 100%)” value (60 μg/well (60 μg/50 μl) test substance, components A, B, C present) came to 73%.
